We go through 71 compounds from PubChem BioAssay AID179 (DTP/NCI, 2004).

Where “and” joins values, the source holds several entries; their conditions need not be identical. Equal entries are not always repeated. Calls of active or inactive are those of the source.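 Rule for the calls: active = compounds giving half or more protection of infected cells from virus-caused growth loss, again on retest; inactive = the rest.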 Where a SMILES comes first, the peptide text is derived from it. The star is where a group is joined. Fmoc = O=C(OCC1c2ccccc2-c2ccccc21)*; Boc = CC(C)(C)OC(=O)*; OtBu = CC(C)(C)O* Where only a bound is given, the exact number is not on record here.

The subject of this assay is CEM cells HIV-1 protection, formazan growth assay. Briefly: NCI AIDS Antiviral Assay. The following applies: for IC50: measured here: growth of uninfected CEM cells. An outline of the steps:
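Steps: treat uninfected and HIV-1-infected human CEM cells at five drug levels; quantify growth by soluble formazan; retest any compound reaching 50% protection; classify actives from the retest.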

For the compound `Clc1ccc(/C(=C\c2ccccc2)Cn2ccnc2)cc1`, the EC50 (as a rule, the concentration that produces a half-maximal response) is more than 200 µM and the IC50 – broadly, the concentration at which inhibition is half-maximal – stood at 16.2 µM.
The like results for `O=[N+]([O-])c1ccc(-c2ccc(C3=Nn4c(CNc5ccccc5Cl)nnc4SC3)o2)cc1` were, in that order, more than 11.2 µM and more than 11.2 µM.
For `CC(=O)C(=Cc1ccc(F)cc1)C(C)=O` the same measures were more than 871 µM and 38 µM.
The like results for `N#CC1(c2ccccc2)CCN(Cc2ccccc2)CC1` were, in that order, more than 115 µM and 60.3 µM.
As to `COc1ccc(CCc2ccccc2CC(=O)O)cc1`, the EC50 was more than 933 µM and the IC50 was determined as 589 µM.
For `Cc1cc(OP2(=O)NCc3ncccc3O2)ccc1Cl` (stereo not drawn) the same measures were more than 200 µM and more than 200 µM.
For `O=C(/C=C\c1ccccc1)c1ccc(-c2cccc(-c3ccccc3)c2)cc1` the same measures were more than 200 µM and 110 µM.
Regarding `Cc1ccc(S(=O)(=O)SCC(=O)c2ccc([N+](=O)[O-])cc2)cc1`, the result was inactive and the IC50 came out at 102 µM.
In the case of `COC1(C)CCC(OS(C)(=O)=O)CO1` (stereo not drawn), the EC50 is more than 200 µM and the concentration for half-maximal inhibition (IC50) was more than 200 µM.
For `CC1=NOC(=O)/C1=C/c1ccccc1O`, the EC50 is more than 178 µM and the IC50 was more than 178 µM.
For the compound `Cc1ccc2c(c1C)C(=O)/C(=C/c1ccccc1C(=O)O)C2`, the EC50 is 38 µM and the IC50 turned out to be 93.3 µM.
For `COC(=O)[C@]12CCC(C)[C@H](C)[C@H]1C1=CCC3[C@@]4(C)CC[C@H](OC(C)=O)C(C)(C)C4CC[C@@]3(C)C1(C)C(O)C2` (stereo partly drawn), the outcome was inactive.
`O=C1C(=O)N(c2cccc(C(F)(F)F)c2)C(=O)C(=O)C1c1nc2ccccc2s1`: the EC50 was more than 44.7 µM and the IC50 is more than 44.7 µM.
For the compound `CP1CCC(O)(c2ccccc2)CC1` (stereo not drawn), the EC50 was more than 200 µM and the IC50 was more than 200 µM.
For the compound `CC(=O)N=C1N(/C=C2\C(=O)Oc3ccccc3C2=O)C(=O)/C(=C/c2ccc(OC(C)=O)cc2)N1C`, the EC50 is more than 200 µM and the IC50 turned out to be 107 µM.
As to `COc1c2c3c(ccnc3c3ccccc13)C(=O)N2C`, the EC50 was more than 200 µM and the IC50 is 9.55 µM.
For `CCCCS(=O)CCC(N)C(=O)O` (stereo not drawn) the same measures were more than 100 µM and more than 100 µM.
Consider `COc1ccc(/C=C2\SC(c3ccc(OC)cc3)N(NC(=O)Cc3ccccc3)C2=O)cc1` (stereo not drawn), for which the EC50 was more than 15.5 µM and the IC50 is more than 15.5 µM.
`O=C(NCCCCCCNC(=O)NCc1ccco1)NCc1ccco1`: the EC50 was more than 14.5 µM and the IC50 is more than 14.5 µM.
Take `CCOC(=O)C(C(=O)OCC)C(c1ccc(OC)cc1)N1CCN(C(c2ccc(OC)cc2)C(C(=O)OCC)C(=O)OCC)CC1` (stereo not drawn): the EC50 is more than 100 µM and the IC50 was more than 100 µM.
For `Cc1cn(C2CC3C(COC(c4ccccc4)N3O)O2)c(=O)[nH]c1=O` (stereo not drawn), the EC50 is more than 200 µM and the IC50 was 34.7 µM.
For `CC(C)N([P-]C(=O)[P-]N(C(C)C)C(C)C)C(C)C.[C-]#[O+].[C-]#[O+].[C-]#[O+].[C-]#[O+].[C-]#[O+].[C-]#[O+].[Fe].[Fe]` (stereo not drawn) the same measures were more than 3.55 µM and more than 3.55 µM.
For the compound `O=C(CC(=O)c1ccccc1)C(=O)Nc1ccc(Cl)cc1`, the EC50 was more than 12 µM and the IC50 was more than 12 µM.
As for `COc1ccc(C23OCN(c4ccccc4)C2(c2ccc(OC)cc2)c2ccccc2N3C)cc1` (stereo not drawn), the EC50 is more than 200 µM and the IC50 is more than 200 µM.
Take `Cc1ccc2[c](c1)[Sn]([c]1ccccc1)([c]1ccccc1)[c]1cc(C)ccc1N2C`: the EC50 is more than 26.3 µM and the IC50 turned out to be 10.2 µM.
For `CC(=O)OC[C@@H](OC(C)=O)[C@H](OC(C)=O)[C@@H]1OC(C)(C)O[C@@H]1C1SCCCS1` the same measures were more than 200 µM and more than 200 µM.
The like results for `c1ccc2c(c1)c1ccccc1c1nccnc21` were, in that order, more than 200 µM and 69.2 µM.
For `NC(Cc1ccc(S(=O)(=O)O)cc1)C(=O)NC(Cc1ccc(S(=O)(=O)O)cc1)C(=O)NC(Cc1ccc(S(=O)(=O)O)cc1)C(=O)O` (stereo not drawn) the same measures were more than 200 µM and more than 200 µM.
For `Cc1ccsc1C(=O)C(CC(=O)c1cccs1)c1ccsc1` (stereo not drawn), the outcome was inactive.
The same measure, in the same setting: the entry for `O=C1C(N=Nc2ccc(Cl)cc2)Sc2nc3ccccc3n21` (stereo not drawn) is “inactive”.
Turning to `COc1ccccc1/C=C1\SC(=S)N(/C=C2\C(=O)Oc3ccccc3C2=O)C1=O`, the EC50 is more than 200 µM and the IC50 amounted to 27.5 µM.
The like results for `CN(C)CCCN1CCC2(CCSCC2)C1` were, in that order, more than 186 µM and 87.1 µM.
As for `CCOC(=O)C1Cc2c(n(C3CCCCC3)c(=O)n(C)c2=O)OC1c1ccccc1` (stereo not drawn), the EC50 was more than 63.1 µM and the concentration for half-maximal inhibition (IC50) is 29.5 µM.
The like results for `CCCCC(c1nc2c(c3c1CCCC3)CCCC2)C(O)(C(F)(F)F)C(F)(F)F` (stereo not drawn) were, in that order, more than 200 µM and 38.9 µM.
The like results for `CC(CCC(=O)O)(CCC(=O)O)[N+](=O)[O-]` were, in that order, more than 1150 µM and more than 1150 µM.
For `CCOC(=O)CCCN(C(=O)c1ccccc1)c1scc(-c2ccccc2)c1C(=O)OCC` the same measures were more than 200 µM and 11.5 µM.
Turning to `c1ccc2c3c([nH]c2c1)C1C2CCCCN2C(c2ccncc2)N1CC3` (stereo not drawn), the EC50 was more than 75.9 µM and the IC50 was found to be 42.7 µM.
As to `CC(=O)O[C@@H]1CC[C@@]2(C)C(=O)C34C[C@@]5(C)C([C@@H](C)CCCC(C)C)CCC5(C)[C@](O)(O3)C(=O)[C@H]4C2C1(C)C` (stereo partly drawn), the EC50 was more than 18.6 µM and the IC50 is more than 18.6 µM.
Consider `Cc1c(Cl)ccc2c(=O)c3cccc(CC(=O)O)c3oc12`, for which the EC50 is more than 200 µM and the half-inhibitory concentration (IC50) is 79.4 µM.
Consider `CC(C)(C)OC(=O)CCC(NC(=O)OCC1c2ccccc2-c2ccccc21)C(=O)NC(Cc1c[nH]c2ccccc12)C(=O)NC(CCCCNC(=O)OC(C)(C)C)C(=O)N1CCCC1C(=O)NCC(N)=O` (stereo not drawn) (Fmoc-E(OtBu)WK(Boc)PG-NH2; configuration not given here), for which the EC50 was more than 100 µM; the IC50 was > 100 µM and 44.7 µM.
As for `ClC1CCC2OOC1O2` (stereo not drawn), the outcome was inactive.
Turning to `CC1CC(C)C2=NOS3=C2C1=NO3` (stereo not drawn), the EC50 is more than 200 µM and the concentration for half-maximal inhibition (IC50) was more than 100 µM.
In the case of `CCCCCCCCCCCCCCCCCC(=O)OCC(CO)OC(=O)CCCCCCCCCCCCCCCCC` (stereo not drawn), the result was inactive.
Consider `Cc1c(C)c(C)n(C2OC(CO)C(O)C(O)C2O)c(=S)c1C#N` (stereo not drawn), for which the EC50 was more than 100 µM and the IC50 was more than 100 µM.
Regarding `Oc1cccc2c1N1CCN2CC1`, the EC50 was more than 200 µM and the IC50 is more than 200 µM.
Turning to `CCCCCCCCCCCCCCCCOCC(Cl)COP(=O)(O)OP(=O)(O)OCC1OC(n2cc(C)c(=O)[nH]c2=O)CC1O` (stereo not drawn), the EC50 is more than 145 µM and the IC50 was determined as 123 µM.
On to `CN(C)CCNC(=O)c1noc2c1CSc1ccccc1-2`, for which the EC50 is more than 407 µM and the half-maximal inhibitory concentration (IC50) came to 28.2 µM.
As for `CC(C)=CCN1c2ccc(Cl)cc2NC(=O)CC1C` (stereo not drawn), the EC50 was more than 87.1 µM and the IC50 was 49 µM.
For `O=Nc1c(O)c(S(=O)(=O)O)cc2cc(S(=O)(=O)O)ccc12` the same measures were more than 200 µM and 33.1 µM.
Take `O=C(C/C(CCC(=O)N(Cc1ccccc1)Cc1ccccc1)=N/Nc1ccc([N+](=O)[O-])cc1[N+](=O)[O-])c1ccccc1`: the outcome was inactive.
On to `CCCCOP(=S)(OCCCC)OCCCC`, for which the outcome was inactive.
In the case of `COC(=O)C1=C(N)C2=C(N)Oc3ccccc3C2CC1=C(C#N)C#N` (stereo not drawn), the EC50 is more than 200 µM and the IC50 was found to be 47.9 µM.
The like results for `O=S(=O)(c1ccccc1)N1CC2(CN(S(=O)(=O)c3ccccc3)c3ccccc31)CN(S(=O)(=O)c1ccccc1)c1ccccc1N(S(=O)(=O)c1ccccc1)C2` were, in that order, more than 200 µM and more than 200 µM.
`Cc1ccccc1Nc1nc2c(s1)C(=O)c1ccccc1C2=O`: the result was inactive.
With `CC1(c2ccccc2)Oc2ccccc2-n2cccc2C1=O` (stereo not drawn), the EC50 is 2.4 µM and the IC50 amounted to 12.9 µM.
For `CC(=O)Oc1cc2c(c3ncccc13)OC(C)(C)C2` the same measures were more than 200 µM and 11 µM.
As for `CC[N+](C)(CC)CCCC(C)N1C(=O)C2CCCCC2C1=O` (stereo not drawn), the EC50 was more than 200 µM and the IC50 is more than 200 µM.
Regarding `Cc1ccnc2[nH]c3ccccc3c(=O)c12`, the EC50 is more than 200 µM and the IC50 worked out at 14.5 µM.
As to `NC1=NCCS1`, the EC50 was more than 70.8 µM; the IC50 is > 70.8 µM and 32.4 µM.
Take `CN(C)NC1=C([N+](=O)[O-])C=NN(c2ccccc2)C1`: the EC50 was more than 27.5 µM and the IC50 worked out at 0.468 µM.
As for `Nc1c2c(nc3ccccc13)CCCC2` (tested in a mixture with another compound), the EC50 is more than 4170 µM; the IC50 was 25.7 µM and 39.8 µM.
Turning to `COC12C(COC(N)=O)C3=C(C(=O)C(C)=C(N4CCN(C)CC4)C3=O)N1CC1NC12` (stereo not drawn), the EC50 was more than 200 µM and the IC50 was 110 µM.
As to `N.N.N.N.N.[Co+3].[I-].[N-]=[N+]=[N-]`, the result was inactive.
As for `NC1(C(=O)O)CCCC1`, the EC50 was more than 724 µM and the half-maximal inhibitory concentration (IC50) is more than 724 µM.
For `CCCCCCCCOC(CO)CO`, the EC50 was more than 251 µM and the IC50 is more than 251 µM.
In the case of `CCOc1ccc(/C=C\c2ccnc3ccccc23)cc1OCC`, the EC50 was 0.0631 µM and the IC50 worked out at 38 µM.
For `COc1cc(/C=N/NC2=NCCCN2)ccc1O` the same measures were more than 200 µM and more than 200 µM.
`CC(C)(C)C1CCC2c3c([nH]c4ccccc34)C3C(=O)N(c4cc(Cl)ccc4Cl)C(=O)C3C2C1` (stereo not drawn): the EC50 was more than 200 µM and the IC50 was 19.1 µM.
For `O=c1[nH]c2cc(Cl)ccc2nc1/C(=N/Nc1ccccc1)C(O)c1ccco1` (stereo not drawn) the same measures were more than 575 µM and more than 575 µM.
The like results for `COc1cc(OC)c(C(=O)CC(=O)c2cc(OC)c(OC)c(OC)c2OC)cc1OC` were, in that order, more than 575 µM and 479 µM.
As for `O=C1NC(=O)c2ccc3c4c(ccc1c24)C(=O)NC3=O`, the EC50 was more than 200 µM and the IC50 was more than 200 µM.
